Assay: Self-diffusion NMR (SD-NMR) diffusion coefficients of the components of the AX-loaded medium
Type: physicochemical
Conditions: 0.5 wt % AX-loaded medium
Procedure: In order to determine the structure of the oil droplets (or micelles) of the medium, self-diffusion NMR analysis was carried out. SD-NMR is able to locate each component within the medium via measurements of its diffusion coefficient.
NMR measurements were performed with a Bruker AVII 500 spectrometer equipped with GREAT 1/10 gradients, a 5 mm BBO and a 5 mm BBI probe, both with a z-gradient coil and with a maximum gradient strength of 0.509 and 0.544 Tm^−1, respectively. Diffusion was measured using an asymmetric bipolar longitudinal eddy-current delay (bpLED) experiment, or an asymmetric bipolar stimulated echo (known as one-shot) experiment with convection compensation and an asymmetry factor of 20%, ramping the strongest gradient from 2% to 95% of maximum strength in 32 steps. The spectrum was processed with the Bruker TOPSPIN software. NMR spectra were recorded at 25±0.2° C. The components were identified by their chemical shift in 1H NMR.

Diffusion coefficient (water content 0 wt %) | Diffusion coefficient (water content 10 wt %) | Diffusion coefficient (water content 20 wt %) | Diffusion coefficient (water content 30 wt %) | Diffusion coefficient (water content 40 wt %) | Diffusion coefficient (water content 50 wt %) | Diffusion coefficient (water content 60 wt %) | Diffusion coefficient (water content 70 wt %) | Diffusion coefficient (water content 80 wt %) | Diffusion coefficient (water content 90 wt %) | Compound
4.13 × 10^−11 m^2/sec | 4.66 × 10^−11 m^2/sec | 4.78 × 10^−11 m^2/sec | 8.67 × 10^−11 m^2/sec | 1.2 × 10^−10 m^2/sec | 1.7 × 10^−10 m^2/sec | 2.33 × 10^−10 m^2/sec | 3.32 × 10^−10 m^2/sec | 4.67 × 10^−10 m^2/sec | 5.89 × 10^−10 m^2/sec | CCO [EtOH, Ethanol]
 | 3.1 × 10^−11 m^2/sec | 2.84 × 10^−11 m^2/sec | 3.2 × 10^−12 m^2/sec | 1.3 × 10^−12 m^2/sec | 2.69 × 10^−11 m^2/sec | 7.96 × 10^−10 m^2/sec | 9.1 × 10^−10 m^2/sec | 1.16 × 10^−9 m^2/sec | 1.48 × 10^−09 m^2/sec | [2H]O[2H] [Formulation D2O, D2O]
4.43 × 10^−11 m^2/sec | 4.78 × 10^−11 m^2/sec | 4.86 × 10^−11 m^2/sec | 8.69 × 10^−11 m^2/sec | 1.23 × 10^−10 m^2/sec | 1.75 × 10^−10 m^2/sec | 2.41 × 10^−10 m^2/sec | 3.35 × 10^−10 m^2/sec | 4.67 × 10^−10 m^2/sec | 6.03 × 10^−10 m^2/sec | CC(O)CO (stereo not shown) [PG, Propylene glycol]
5.46 × 10^−11 m^2/sec | 3.09 × 10^−11 m^2/sec | 2.36 × 10^−11 m^2/sec | 3.2 × 10^−12 m^2/sec | 1.4 × 10^−12 m^2/sec | 1.4 × 10^−12 m^2/sec | 3.1 × 10^−12 m^2/sec | 5.7 × 10^−12 m^2/sec | 1.10 × 10^−11 m^2/sec | 1.91 × 10^−11 m^2/sec | C=C(C)[C@H]1CC=C(C)CC1 [R-(+)-limonene, R-(+)-Limonene]
4.5 × 10^−12 m^2/sec | 3.5 × 10^−12 m^2/sec | 2.9 × 10^−12 m^2/sec | 6 × 10^−13 m^2/sec | 4 × 10^−13 m^2/sec | 9 × 10^−13 m^2/sec | 2.2 × 10^−12 m^2/sec | 5.3 × 10^−12 m^2/sec | 1.05 × 10^−11 m^2/sec | 1.91 × 10^−11 m^2/sec | CCCCCCCC/C=C\CCCCCCCC(=O)OCCOCC(OCCO)C1OCC(OCCO)C1OCCO (stereo not shown) [Tween 80, Polysorbate 80]

Compound | Diffusion coefficient (water content 0 wt %) | Diffusion coefficient (water content 10 wt %) | Diffusion coefficient (water content 20 wt %) | Diffusion coefficient (water content 30 wt %) | Diffusion coefficient (water content 40 wt %) | Diffusion coefficient (water content 50 wt %) | Diffusion coefficient (water content 60 wt %) | Diffusion coefficient (water content 70 wt %) | Diffusion coefficient (water content 80 wt %) | Diffusion coefficient (water content 90 wt %)
CC1=C(/C=C/C(C)=C/C=C/C(C)=C/C=C/C=C(C)/C=C/C=C(C)/C=C/C2=C(C)C(=O)[C@@H](O)CC2(C)C)C(C)(C)C[C@H](O)C1=O [AX, astaxanthin] | 4.7 × 10^−12 m^2/sec | 3 × 10^−12 m^2/sec | 1.4 × 10^−12 m^2/sec | 3 × 10^−13 m^2/sec | 3 × 10^−13 m^2/sec | 7 × 10^−13 m^2/sec | 1.4 × 10^−12 m^2/sec | 4.8 × 10^−12 m^2/sec | 1.12 × 10^−11 m^2/sec | 

— patent US11224628B2, “Method for extraction of an agent from a plant source” (Yissum Research Development Company of the Hebrew …, priority 2017, dated 2022)
